Where two headings read alike, the source gives them in different places.
How the values were obtained:
[1] = biological target: T1, hSP-D (human SP-D, isolated from BAL of PAP patient) (Homo sapiens, UniProt P35247); experiment: Microscale thermophoresis (MST) binding to hSP-D; settings: for Kd: GAGs from Fig. 2, read-out: Kd (±KD Confidence); for Response Amplitude: MST, GAGs from Fig. 2
T1 construct: hSP-D; 0.6 µM; Human PAP patient, BAL isolated; from tissue; host or cells: bronchoalveolar lavage fluid of a patient with pulmonary alveolar proteinosis
T1 sequence (P35247 21-375): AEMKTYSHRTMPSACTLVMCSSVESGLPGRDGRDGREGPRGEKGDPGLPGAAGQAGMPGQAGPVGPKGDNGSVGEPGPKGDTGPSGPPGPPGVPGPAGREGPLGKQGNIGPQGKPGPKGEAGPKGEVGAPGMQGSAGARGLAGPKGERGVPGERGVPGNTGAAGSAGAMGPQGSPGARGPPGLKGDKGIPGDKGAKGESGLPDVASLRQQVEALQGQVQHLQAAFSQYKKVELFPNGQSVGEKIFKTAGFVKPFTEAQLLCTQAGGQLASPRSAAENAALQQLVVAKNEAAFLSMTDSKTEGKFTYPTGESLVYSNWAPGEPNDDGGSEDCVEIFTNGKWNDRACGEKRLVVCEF
Protocol: (§1) Human-isolated and recombinant proteins were labeled using the Monolith Protein Labeling Kit RED-NHS according to the manufacturer’s instructions. This kit reagent reacts with lysine residues present in the sequence of the protein, as the dye carries a reactive NHS-ester group. Briefly, as all the proteins were in a Tris buffer solution, the buffer solution was exchanged to a HEPES-based buffer with the A-Column provided in the kit. Then, 10 µM solution of protein was incubated with a threefold excess of dye in 100 µL for 30 min at room temperature protected from light. The labeled protein was separated from the free dye using the B-Column provided in the kit. The concentration of the labeled protein {c(M) = [A205 − (A650 × 0.19)]/[31 × MWprotein]) and the degree of labeling [DOL = A650/(195.000 M^−1cm^−1 × c(M)] were calculated according to the manufacturer’s instruction, measuring absorption at 205 nm (for the protein) and 650 nm (for the dye).
(§2) Thermophoresis is the phenomenon of movement of particles along a temperature gradient. Solvated molecules move from higher to lower temperature. This movement or depletion of molecules from the heat is quantified by the Soret coefficient ST: Chot/Ccold = exp (−STΔT). The depletion of molecules depends on the interface between molecule and solvent. Therefore, thermophoresis monitors changes in size, charge, and solvation entropy of molecules. In this regard, the thermophoresis or movement of a protein is different from a protein-ligand complex ([35]). Microscale or miniaturized thermophoresis allows to monitor molecular interaction in only a few microliters. For this method, the fluorescently labeled protein is mixed with a decreasing concentration of a ligand in 16 glass capillaries. The initial fluorescence is measured (Fcold), then an infrared (IR) laser beam is switched on and focused on the center of the first capillary, where the temperature gradient is created from the center to the walls of the capillary. At the same time, a dichroic mirror allows fluorescence from the labeled protein to be monitored (Fhot). The rate of fluorescence change is related to the amount of protein-ligand complex form, which depends on the ligand concentration, due to changes in size, charge, or hydration shell of the protein-ligand complex. The dissociation constant KD is calculated from the binding curve derived by plotting the normalized fluorescence (FNorm) at a given time after the start of the thermophoresis against the respective ligand concentration ([33], [34], [36]).
(§3) Samples were measured in a Monolith NT.115, using Premium Capillaries (MO-K025) and Monolith Protein labeling kit RED-NHS (MO-L011) all from NanoTemper Technologies (Munich, Germany). Solutions of a 3X concentrated MST buffer (15 mM Tris, 300 mM NaCl, 0.3% Tween 20, 15 mM CaCl2, pH 7.4), sugars (270 mM) or GAG (30 µM) solution, and protein solution (27 nM) were prepared separately. When a different concentration was used, a threefold concentration of the solution was prepared. Afterward, sugars and GAG solutions were diluted 1:2 with water in a series of 16 steps. For the measurement, 3 µL of each prepared component (3 µL MST buffer, 3 µL GAG solution, and 3 µL labeled protein) was mixed, centrifuged shortly to eliminate precipitates, and loaded into a glass capillary. The final concentrations of the sugars were thus between 90 –and 0.00275 mM or GAGs 10 and 0.000305 µM for GAGs, respectively. The 16 capillaries were loaded in the Monolith NT.115 and measurements were performed with a 40% LED power and medium MST power at 25°C.
(§4) Every set of 16 capillaries was prepared in 3–6 replicates (technical replicates) and measured. The replicate measures of every capillary were plotted against concentration and outliers were excluded, using the MO Affinity Analysis 3 v01 software (NanoTemper Technologies, Munich, Germany). […]

[2] = biological target: T2, recSP-A2 (human recombinant SP-A2) (Homo sapiens, UniProt Q8IWL1); experiment: Microscale thermophoresis (MST) binding to recSP-A2; settings: for Kd: recSP-A2, GAGs from Fig. 2, read-out: Kd (±KD Confidence); for Response Amplitude: recSP-A2, MST, GAGs from Fig. 2
T2 construct: purchased Aviva Systems Biology OPCD07132; host or cells: prokaryotic expression
Protocol: as §1, §2, §3, §4

[3] = biological target: T3, recSP-A1 (human recombinant SP-A1) (Homo sapiens, UniProt Q8IWL2); experiment: Microscale thermophoresis (MST) binding to recSP-A1; settings: for Kd: recSP-A1, GAGs from Fig. 2, read-out: Kd (±KD Confidence); for Response Amplitude: recSP-A1, MST, GAGs from Fig. 2
T3 construct: purchased Aviva Systems Biology OPCD07130; host or cells: prokaryotic expression
Protocol: as §1, §2, §3, §4

[4] = biological target: T4, hSP-A (human SP-A, isolated from BAL of PAP patient) (Homo sapiens, UniProt Q8IWL1+Q8IWL2); experiment: Microscale thermophoresis (MST) binding to hSP-A; parameters: Response Amplitude: unit not given here; settings: for binding of hSP-A in the absence or presence of low calcium concentrations: 0 and 2.5 mM calcium (Fig. 3A-C); for Response Amplitude / Kd: hSP-A
T4 construct: Human PAP patient, BAL isolated; from tissue; host or cells: bronchoalveolar lavage fluid of a patient with pulmonary alveolar proteinosis
Protocol: as §1, §2, §3, §4

[5] = biological target: T5, rhSP-D (human recombinant SP-D) (Homo sapiens, UniProt P35247); experiment: Microscale thermophoresis (MST) binding to rhSP-D; parameters: Response Amplitude: unit not given here
T5 construct: host or cells: CHO cells
T5 sequence (P35247 21-375): T1 sequence (P35247 21-375)
Protocol: as §1, §2, §3, §4

[6] = GAGs from Fig. 2, read-out: Kd (±KD Confidence)

T3 sequence (Q8IWL2 21-248): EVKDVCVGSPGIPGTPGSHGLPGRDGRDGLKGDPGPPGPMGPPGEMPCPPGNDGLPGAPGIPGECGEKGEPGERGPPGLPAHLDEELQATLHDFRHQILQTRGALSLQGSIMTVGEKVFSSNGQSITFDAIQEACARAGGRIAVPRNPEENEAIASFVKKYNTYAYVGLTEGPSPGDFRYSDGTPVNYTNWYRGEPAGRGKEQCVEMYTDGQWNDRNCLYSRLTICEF
T4 sequence (Q8IWL2 21-248): as above
T4 sequence (Q8IWL1 21-248): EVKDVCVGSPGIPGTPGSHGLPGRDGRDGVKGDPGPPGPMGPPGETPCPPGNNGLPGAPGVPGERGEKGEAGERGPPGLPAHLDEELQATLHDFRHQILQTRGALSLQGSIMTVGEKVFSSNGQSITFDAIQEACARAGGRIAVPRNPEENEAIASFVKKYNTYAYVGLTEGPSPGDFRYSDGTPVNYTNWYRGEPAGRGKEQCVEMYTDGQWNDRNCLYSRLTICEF
T2 sequence (Q8IWL1 21-248): as above

With chondroitin sulfate sodium salt [CS] the Kd [1] was 5820 nM, the “Response Amplitude” value [1] was 3.74 and the Kd [2] was 55.2 nM. The “Response Amplitude” value [2] was 31.90, the Kd [3] was 80.1 nM and the “Response Amplitude” value [3] was 17.02. For the same substance, the “binding of hSP-A in the absence or presence of low calcium concentrations” value (“binding … of low calcium concentrations” for short) ([4]; MST) was “binds”, the “Response Amplitude” value ([4]; 0 mM Ca^2+) was 7.16 and the Kd ([4]; 0 mM Ca^2+, read-out: KD) was 0.999 nM. The “Response Amplitude” value ([4]; 2.5 mM Ca^2+) was 13.45, the “Response Amplitude” value ([4]; 5 mM Ca^2+) was 8.07 and the Kd ([4]; 5 mM Ca^2+, read-out: KD) was 7.38 nM. The “Response Amplitude” value ([4]; 10 mM Ca^2+) was 6.89, the Kd ([4]; 10 mM Ca^2+, read-out: KD) was 5.91 nM and the Kd [4, 6] was 225 nM. For the same substance, the “Response Amplitude” value ([4]; MST, GAGs from Fig. 2) was 8.37, the “Response Amplitude” value ([5]; 0 mM Ca^2+) was 16.10 and the Kd ([5]; 0 mM Ca^2+, read-out: KD) was 17600 nM. For the same substance, the “Response Amplitude” value ([5]; 2.5 mM Ca^2+) was 10.05, the Kd ([5]; 2.5 mM Ca^2+, read-out: KD) was 152 nM and the “Response Amplitude” value ([5]; 5 mM Ca^2+) was 10.83. For the same substance, the Kd ([5]; 5 mM Ca^2+, read-out: KD) was 97.1 nM, the “Response Amplitude” value ([5]; 10 mM Ca^2+) was 21.36 and the Kd ([5]; 10 mM Ca^2+, read-out: KD) was 131 nM. For the same substance, the Kd [5, 6] was 0.808 nM and the “Response Amplitude” value ([5]; MST, GAGs from Fig. 2) was 23.54.
In the case of hyaluronic acid sodium salt [HA], the Kd [1] is reported as 2190 nM, the “Response Amplitude” value [1] is reported as 3.45 and the Kd [2] is reported as 1870 nM. For the same substance, the “Response Amplitude” value [2] was 19.28, the Kd [3] was 1010 nM and the “Response Amplitude” value [3] was 17.13. The “binding … of low calcium concentrations” value ([4]; MST) was “not able to bind”, the “Response Amplitude” value ([4]; 5 mM Ca^2+) was 7.31 and the Kd ([4]; 5 mM Ca^2+, read-out: KD) was 2.91 nM. For the same substance, the “Response Amplitude” value ([4]; 10 mM Ca^2+) was 3.65, the Kd ([4]; 10 mM Ca^2+, read-out: KD) was 54.6 nM and the Kd [4, 6] was 12.2 nM. The “Response Amplitude” value ([4]; MST, GAGs from Fig. 2) was 12.93, the “Response Amplitude” value ([5]; 5 mM Ca^2+) was 5.33 and the Kd ([5]; 5 mM Ca^2+, read-out: KD) was 41.9 nM. For the same substance, the “Response Amplitude” value ([5]; 10 mM Ca^2+) was 3.25, the Kd ([5]; 10 mM Ca^2+, read-out: KD) was 31.1 nM and the Kd [5, 6] was 22.1 nM. The “Response Amplitude” value ([5]; MST, GAGs from Fig. 2) was 9.67.
heparan sulfate sodium [HS] was tested, and the Kd [1] was 5640 nM, the “Response Amplitude” value [1] was 3.03 and the Kd [2] was 143 nM. The “Response Amplitude” value [2] was 15.59, the Kd [3] was 269 nM and the “Response Amplitude” value [3] was 15.51. The “binding … of low calcium concentrations” value ([4]; MST) was “binds”, the “Response Amplitude” value ([4]; 0 mM Ca^2+) was 3.61 and the Kd ([4]; 0 mM Ca^2+, read-out: KD) was 3.22 nM. The “Response Amplitude” value ([4]; 2.5 mM Ca^2+) was 9.27, the Kd ([4]; 2.5 mM Ca^2+, read-out: KD) was 0.188 nM and the “Response Amplitude” value ([4]; 5 mM Ca^2+) was 7.51. The Kd ([4]; 5 mM Ca^2+, read-out: KD) was 3.74 nM, the “Response Amplitude” value ([4]; 10 mM Ca^2+) was 2.79 and the Kd ([4]; 10 mM Ca^2+, read-out: KD) was 375 nM. The Kd [4, 6] was 23.3 nM, the “Response Amplitude” value ([4]; MST, GAGs from Fig. 2) was 11.92 and the “Response Amplitude” value ([5]; 0 mM Ca^2+) was 12.04. The Kd ([5]; 0 mM Ca^2+, read-out: KD) was 735 nM, the “Response Amplitude” value ([5]; 2.5 mM Ca^2+) was 33.47 and the Kd ([5]; 2.5 mM Ca^2+, read-out: KD) was 7.44 nM. The “Response Amplitude” value ([5]; 5 mM Ca^2+) was 6.29, the Kd ([5]; 5 mM Ca^2+, read-out: KD) was 431 nM and the “Response Amplitude” value ([5]; 10 mM Ca^2+) was 15.22. For the same substance, the Kd ([5]; 10 mM Ca^2+, read-out: KD) was 0.688 nM, the Kd [5, 6] was 287 nM and the “Response Amplitude” value ([5]; MST, GAGs from Fig. 2) was 3.55.
